How the values were obtained:
[1] = Stability of sodium 4-phenylbutyrate in unit-dose type containers (liquid chromatography); format: physicochemical; details: PE, COC/PE; 40° C., 1 month (Table 1-5)
Protocol: An aqueous composition (formulation 2-1) shown in Table 1-4 was prepared through a usual method to fill a 0.5-mL volume polyethylene (PE) unit-dose type container and a unit-dose type resin container made of a mixture of a cyclic olefin copolymer (COC) and polyethylene (PE) by 0.5 mL each.
Liquid chromatography was used to quantify sodium 4-phenylbutyrate. 20 μL of 0.02 w/v % sodium 4-phenylbutyrate solution was used as a standard solution, and 20 μL of a formulation 2-1 diluted 10 times with a mobile phase was used as a sample solution. The standard solution and the sample solution were each placed on a reverse-phase column (YMC-Pack ODS-A (I.D. 4.6 mm×150 mm, 5 μm) manufactured by YMC CO., LTD.) maintained at 30° C., and eluted with a 0.2% formic acid solution-acetonitrile mixture as a mobile phase. Detection was performed with an ultraviolet absorptiometer (measurement wavelength: 260 nm). Thereafter, the peak area of sodium 4-phenylbutyrate was measured for the standard solution and the sample solution, and the concentration of sodium 4-phenylbutyrate was determined for the formulation 2-1 immediately after preparation and after storage at 40° C. for 1 month using Equation 3 below.

[2] = Stability of sodium 4-phenylbutyrate in multi-dose type containers (liquid chromatography); format: physicochemical; details: PE, PP, PET; 60° C., 1 week (Table 1-2)
Protocol: Each aqueous composition (formulations 1-0 to 1-4) shown in Table 1-1 was prepared through a usual method to fill 5-mL volume multi-dose type containers made of polyethylene (PE), polypropylene (PP), and polyethylene terephthalate (PET) by 5 mL each.
Liquid chromatography was used to quantify sodium 4-phenylbutyrate. 10 μL of 0.05 w/v % sodium 4-phenylbutyrate solution was used as a standard solution, and 10 μL of a formulation diluted 10 times with a mobile phase was used as a sample solution. The standard solution and the sample solution were each placed on a reverse-phase column (YMC-Pack ODS-A (I.D. 4.6 mm×150 mm, 5 μm) manufactured by YMC CO., LTD.) maintained at 30° C., and eluted with a 0.2% formic acid solution-acetonitrile mixture as a mobile phase. Detection was performed with an ultraviolet absorptiometer (measurement wavelength: 260 nm). Thereafter, the peak area of sodium 4-phenylbutyrate was measured for the standard solution and the sample solution, and the concentration of sodium 4-phenylbutyrate was determined for each formulation immediately after preparation and after storage at 60° C. for 1 week using Equation 1 below.

O=C([O-])CCCc1ccccc1.[Na+] [sodium 4-phenylbutyrate, Sodium 4-phenylbutyrate]
Stability of sodium 4-phenylbutyrate itself among the container resins [1]: no difference in stability
Stability of sodium 4-phenylbutyrate itself among the container resins [2]: no difference in stability

From US20250213510A1, “Aqueous Composition” (TSUBOTA LABORATORY, Inc., priority 2022, published 2025)
